According to patent US4808711A, “Cephalosporin derivatives” (Sankei Pharmaceutical Co., Ltd., priority 1985, dated 1989):
Where two headings read alike, the source gives them in different places.

Legend:
Assay type in all cases: cell-based
[1] = tested on: S. newport 563; test: MIC, S. newport 563
Experimental: (§1) The minimum inhibition concentrations (MIC) of the compounds obtained by the present invention were measured according to the standard method of Japanese Chemotherapy Association.

[2] = tested on: S. paratyphi C 33-76; test: MIC, S. paratyphi C 33-76
Experimental: as §1

[3] = tested on: P. putida ATCC12633; test: MIC, P. putida ATCC12633; details: Pseudomonas putida
Experimental: as §1

[4] = tested on: C. freundii IFO12681; test: MIC, C. freundii IFO12681
Experimental: as §1

[5] = tested on: S. dysenteriae 4379-60; test: MIC, S. dysenteriae 4379-60
Experimental: as §1

[6] = tested on: S. flexneri Y NCTC 9730; test: MIC, S. flexneri Y NCTC 9730
Experimental: as §1

[7] = tested on: S. paratyphi A 144-12-93; test: MIC, S. paratyphi A 144-12-93
Experimental: as §1

[8] = tested on: P. aeruginosa ATCC9721; test: MIC, P. aeruginosa ATCC9721; details: Pseudomonas aeruginosa
Experimental: as §1

[9] = tested on: E. coli NIHJ JC-2; test: MIC, E. coli NIHJ JC-2
Experimental: as §1

[10] = tested on: S. marcescens IFO12648; test: MIC, S. marcescens IFO12648
Experimental: as §1

[11] = tested on: S. aureus TASAKI; test: MIC, S. aureus TASAKI; details: Staphylococcus aureus
Experimental: as §1

[12] = tested on: S. typhimurium ATCC13311; test: MIC, S. typhimurium ATCC13311
Experimental: as §1

[13] = tested on: S. paratyphi B; test: MIC, S. paratyphi B
Experimental: as §1

[14] = tested on: P. mirabilis IFO3849; test: MIC, P. mirabilis IFO3849
Experimental: as §1

[15] = tested on: S. aureus ATCC25923; test: MIC, S. aureus ATCC25923; details: Staphylococcus aureus
Experimental: as §1

[16] = tested on: S. aureus Smith; test: MIC, S. aureus Smith
Experimental: as §1

[17] = tested on: P. cepacia ATCC25416; test: MIC, P. cepacia ATCC25416
Experimental: as §1

[18] = tested on: S. anatum 677-69; test: MIC, S. anatum 677-69
Experimental: as §1

[19] = tested on: S. faecalis IFO3826; test: MIC, S. faecalis IFO3826
Experimental: as §1

[20] = tested on: S. aureus 209P JC-1; test: MIC, S. aureus 209P JC-1
Experimental: as §1

[21] = tested on: S. boyadii CDC 2064-59; test: MIC, S. boyadii CDC 2064-59
Experimental: as §1

[22] = tested on: S. typhi 1099-77; test: MIC, S. typhi 1099-77
Experimental: as §1

[23] = tested on: K. pneumoniae ATCC27736; test: MIC, K. pneumoniae ATCC27736
Experimental: as §1

[24] = tested on: S. sonnei SH72-415; test: MIC, S. sonnei SH72-415
Experimental: as §1

[25] = tested on: S. epidermidis ATCC14990; test: MIC, S. epidermidis ATCC14990
Experimental: as §1

[26] = tested on: B. subtilis ATCC6633; test: MIC, B. subtilis ATCC6633
Experimental: as §1

[27] = tested on: E. cloacae ATCC13047; test: MIC, E. cloacae ATCC13047; details: Enterobacter cloacae
Experimental: as §1

[28] = tested on: P. maltophilia ATCC13637; test: MIC, P. maltophilia ATCC13637; details: Stenotrophomonas maltophilia
Experimental: as §1

[29] = tested on: P. rettgeri ATCC14505; test: MIC, P. rettgeri ATCC14505
Experimental: as §1

[30] = tested on: S. typhimurium IFO 12529; test: MIC, S. typhimurium IFO 12529
Experimental: as §1

[31] = tested on: S. flexneri 2a CDC 4807-62; test: MIC, S. flexneri 2a CDC 4807-62
Experimental: as §1

[32] = tested on: P. vulgaris ATCC6398; test: MIC, P. vulgaris ATCC6398
Experimental: as §1

[33] = tested on: P. vulgaris ATCC6380; test: MIC, P. vulgaris ATCC6380
Experimental: as §1

[34] = tested on: E. coli ATCC25922; test: MIC, E. coli ATCC25922
Experimental: as §1

[35] = tested on: P. fluorescens ATCC13525; test: MIC, P. fluorescens ATCC13525
Experimental: as §1

[36] = Salmonella enterica, read-out: MIC
[37] = Citrobacter freundii, read-out: MIC
[38] = Shigella flexneri, NCTC9730, read-out: MIC
[39] = P. aeruginosa ATCC9721, read-out: MIC
[40] = Escherichia coli, NIHJJC2, read-out: MIC
[41] = Serratia marcescens, read-out: MIC
[42] = S. aureus TASAKI, standard method of Japanese Chemotherapy Association, read-out: MIC
[43] = Proteus mirabilis, read-out: MIC
[44] = S. aureus ATCC25923, read-out: MIC
[45] = Staphylococcus aureus, read-out: MIC
[46] = Burkholderia cepacia, read-out: MIC
[47] = Salmonella enterica, 67769, read-out: MIC
[48] = Enterococcus faecalis, read-out: MIC
[49] = Staphylococcus aureus, S. aureus 209P JC-1, read-out: MIC
[50] = Klebsiella pneumoniae, read-out: MIC
[51] = Shigella sonnei, SH72415, read-out: MIC
[52] = Staphylococcus epidermidis, read-out: MIC
[53] = Bacillus subtilis, B. subtilis ATCC6633, read-out: MIC
[54] = Providencia rettgeri, read-out: MIC
[55] = Shigella flexneri, read-out: MIC
[56] = Proteus vulgaris, read-out: MIC
[57] = Escherichia coli, read-out: MIC
[58] = Pseudomonas fluorescens, read-out: MIC

Measured: MIC

CN(C)CCn1nnnc1SCC1=C(C(=O)O)N2C(=O)[C@@H](NC(=O)Cc3csc(N)n3)[C@H]2SC1 [CTM, cephothiam]
0.1 µg/mL: [12]; [36] | [22]; Salmonella enterica, TYPHI | [23]; [50] | [31]; [55]
> 100 µg/mL: [3] | [8]; [39] | [19]; [48] | [28] | [32]; [56] | [33]; [56]
3.13 µg/mL: [4]; [37] | [29]; [54]
0.2 µg/mL: [9]; [40] | [13]; Salmonella enterica, PARATYPHI | [18]; [47] | [20]; [49] | [24]; [51] | [30]; [36] | [34]; [57]
6.25 µg/mL: [10]; [41]
0.05 µg/mL: [2]; Salmonella enterica, PARATYPHI | [5]; Shigella dysenteriae, 437960
0.39 µg/mL: [1]; [36] | [7]; Salmonella enterica, PARATYPHI | [11]; [42] | [15]; [44] | [16]; [45] | [17]; [46] | [21] | [25]; [52] | [26]; [53]
50 µg/mL: [27]
0.78 µg/mL: [6]; [38] | [14]; [43]

CO/N=C(\C(=O)N[C@@H]1C(=O)N2C(C(=O)O)=C(COC(C)=O)CS[C@H]12)c1csc(N)n1 [CTX, cephotaxim]
1.56 µg/mL: [11]
≤ 0.006 µg/mL: [2]; Salmonella enterica, PARATYPHI | [32]; [56]
25 µg/mL: [35]; [58]
3.13 µg/mL: [8]; [39] | [16]; [45] | [27]
0.012 µg/mL: [5]; Shigella dysenteriae, 437960
50 µg/mL: [3] | [28]
0.2 µg/mL: [7]; Salmonella enterica, PARATYPHI | [10]; [41] | [30]; [36]
0.78 µg/mL: [15]; [44] | [17]; [46] | [25]; [52]
0.05 µg/mL: [6]; [38] | [12]; [36] | [14]; [43] | [24]; [51] | [33]; [56]
0.025 µg/mL: [31]; [55]
> 100 µg/mL: [19]; [48]
0.39 µg/mL: [20]; [49] | [21] | [26]; [53]
0.1 µg/mL: [1]; [36] | [4]; [37] | [9]; [40] | [13]; Salmonella enterica, PARATYPHI | [18]; [47] | [22]; Salmonella enterica, S. typhi 1099-77, read-out: MIC | [23]; [50] | [29]; [54] | [34]; [57]

Cc1nnc(SCC2=C(C(=O)O)N3C(=O)C(NC(=O)C(=NOCC(=O)NNC(=O)c4ccc(O)c(O)c4)c4csc(N)n4)C3SC2)s1 (stereo not drawn) [Example 59]
≤ 0.006 µg/mL: [22]; Salmonella enterica, TYPHI
0.2 µg/mL: [31]; [55]
12.5 µg/mL: [35]; [58]
1.56 µg/mL: [11]; [42] | [27]
0.39 µg/mL: [9]; [40] | [10]; [41] | [14]; [43] | [17]; [46] | [20]; [49] | [21] | [25]; [52] | [26]; [53] | [33]; [56]
0.025 µg/mL: [7]; Salmonella enterica, PARATYPHI | [18]; [47]
0.012 µg/mL: [2]; Salmonella enterica, PARATYPHI | [13]; Salmonella enterica, PARATYPHI | [23]; [50]
0.05 µg/mL: [1]; [36] | [5]; Shigella dysenteriae, 437960 | [24]; [51] | [32]; [56]
0.1 µg/mL: [8]; [39] | [12]; [36] | [30]; [36] | [34]; [57]
> 100 µg/mL: [19]; [48]
0.78 µg/mL: [3] | [4]; [37] | [6]; [38] | [15]; [44] | [16]; [45] | [28] | [29]; [54]

cephazoline [CAZ]
> 100 µg/mL: [19]
3.13 µg/mL: [35]
0.2 µg/mL: [5]; S. dysenteriae 4379-60 | [14] | [31] | [33]
0.39 µg/mL: [4] | [6] | [10] | [12] | [22]; S. typhi 1099-77 | [24] | [29] | [34]
1.56 µg/mL: [7]; S. paratyphi A 144-12-93
6.25 µg/mL: [16] | [17] | [25] | [26]; B. subtilis ATCC6633
0.1 µg/mL: [2]; S. paratyphi C 33-76 | [32]
0.78 µg/mL: [1] | [9] | [13]; S. paratyphi B | [18] | [20]; S. aureus 209P JC-1 | [23] | [30]

Cn1nnnc1SCC1=C(C(=O)O)N2C(=O)C(NC(=O)C(=NOCC(=O)NNC(=O)c3ccc(O)c(O)c3)c3csc(N)n3)C2SC1 (stereo not drawn) [Example 62]
0.39 µg/mL: [4]; [37] | [10]; [41] | [14]; [43] | [15]; [44] | [20]; [49] | [21] | [25]; [52] | [26]; [53] | [33]; [56]
1.56 µg/mL: [3] | [11]; [42] | [28] | [29]; [54]
0.1 µg/mL: [8]; [39] | [31]; [55]
0.025 µg/mL: [5]; Shigella dysenteriae, 437960 | [7]; Salmonella enterica, PARATYPHI | [12]; [36] | [18]; [47]
0.05 µg/mL: [1]; [36] | [24]; [51] | [30]; [36] | [32]; [56]
0.78 µg/mL: [6]; [38] | [9]; [40] | [17]; [46]
0.2 µg/mL: [34]; [57]
> 100 µg/mL: [19]; [48]
0.012 µg/mL: [2]; Salmonella enterica, PARATYPHI | [13]; Salmonella enterica, PARATYPHI | [23]; [50]
12.5 µg/mL: [35]; [58]
3.13 µg/mL: [16]; [45] | [27]
≤ 0.006 µg/mL: [22]; Salmonella enterica, TYPHI

CO[C@@]1(NC(=O)C(C(=O)O)c2ccc(O)cc2)C(=O)N2C(C(=O)O)=C(CSc3nnnn3C)CO[C@@H]21 (stereo partly drawn) [LMOX, latamoxiceph]
6.25 µg/mL: [16]; [45] | [17]; [46] | [25]; [52]
0.78 µg/mL: [27]
> 100 µg/mL: [19]; [48]
3.13 µg/mL: [6]; [38] | [8]; ATCC9721 | [11] | [15]; ATCC25923 | [20]; Staphylococcus aureus, 209P | [21] | [26]; Bacillus subtilis, ATCC6633
25 µg/mL: [3] | [28]
0.05 µg/mL: [5]; Shigella dysenteriae, 437960 | [12]; [36] | [13]; Salmonella enterica, PARATYPHI | [22]; Salmonella enterica, TYPHI | [23]; [50]
0.025 µg/mL: [2]; Salmonella enterica, PARATYPHI
0.2 µg/mL: [7]; Salmonella enterica, PARATYPHI | [9]; [40] | [10]; [41] | [32]; [56] | [33]; [56] | [34]; [57]
0.1 µg/mL: [1]; [36] | [4]; [37] | [14]; [43] | [18]; [47] | [24]; [51] | [29]; [54] | [30]; [36] | [31]; [55]
